Experimental data published in PubChem BioAssay AID2060508 (Molecular Pharmacology Branch, DTP, NCI, 2025).

Test system: 454973-116-R2-J3-PDC spheroids, viability, % test/control
Experiment: Anticancer human tumor 454973-116-R2-J3-PDC patient-derived pancreatic carcinoma cell line growth inhibition [GQUAD]
Details: spheroids with HUVEC and MSC; for IC50: curve of first compound; for viability, T/C: stronger effect = lower value; active means viability on the fitted dose curve at most 10% of control; inactive means the rest
How it was run: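 Tumor cells were grown as complex spheroids with HUVEC endothelial cells and mesenchymal stem cells as stroma. G-quadruplex stabilizers were combined with targeted agents over half-log dilutions from near the clinical Cmax, or from 10 microM.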

[1] = second compound 0.0316 µM, first compound 0.0316 µM
[2] = second compound 0.0316 µM, first compound 0.1 µM
[3] = second compound 0.0316 µM, first compound 0.316 µM
[4] = second compound 0.0316 µM, first compound 1 µM
[5] = second compound 0.0316 µM, first compound 3.16 µM
[6] = second compound 0.0316 µM, first compound 10 µM
[7] = second compound 0.1 µM, first compound 0.0316 µM
[8] = second compound 0.1 µM, first compound 0.1 µM
[9] = second compound 0.1 µM, first compound 0.316 µM
[10] = second compound 0.1 µM, first compound 1 µM
[11] = second compound 0.1 µM, first compound 3.16 µM
[12] = second compound 0.1 µM, first compound 10 µM
[13] = second compound 0.316 µM, first compound 0.0316 µM
[14] = second compound 0.316 µM, first compound 0.1 µM
[15] = second compound 0.316 µM, first compound 0.316 µM
[16] = second compound 0.316 µM, first compound 1 µM
[17] = second compound 0.316 µM, first compound 3.16 µM
[18] = second compound 0.316 µM, first compound 10 µM
[19] = second compound 1 µM, first compound 0.0316 µM
[20] = second compound 1 µM, first compound 0.1 µM
[21] = second compound 1 µM, first compound 0.316 µM
[22] = second compound 1 µM, first compound 1 µM
[23] = second compound 1 µM, first compound 3.16 µM
[24] = second compound 1 µM, first compound 10 µM
[25] = second compound 3.16 µM, first compound 0.0316 µM
[26] = second compound 3.16 µM, first compound 0.1 µM
[27] = second compound 3.16 µM, first compound 0.316 µM
[28] = second compound 3.16 µM, first compound 1 µM
[29] = second compound 3.16 µM, first compound 3.16 µM
[30] = second compound 3.16 µM, first compound 10 µM
[31] = second compound 10 µM, first compound 0.0316 µM
[32] = second compound 10 µM, first compound 0.1 µM
[33] = second compound 10 µM, first compound 0.316 µM
[34] = second compound 10 µM, first compound 1 µM
[35] = second compound 10 µM, first compound 3.16 µM
[36] = second compound 10 µM, first compound 10 µM
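Further: spheroids exposed to compounds for seven days.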
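Wherever viability, T/C is given: 100% = DMSO vehicle control viability.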

C=CC(=O)N1CCN(c2nc(=O)n(-c3c(C)ccnc3C(C)C)c3nc(-c4c(O)cccc4F)c(F)cc23)C(C)C1 (stereo unspecified) + Cc1cnc(CNC(=O)c2c(=O)c3ccc(N4CCCN(C)CC4)nc3n3c2sc2ccccc23)cn1
inactive: viability, T/C [1] 100% | viability, T/C [2] 94.2% | viability, T/C [3] 105% | viability, T/C [4] 116% | viability, T/C [5] 118% | viability, T/C [6] 118% | viability, T/C [7] 78.1% | viability, T/C [8] 80.1% | viability, T/C [9] 87.6% | viability, T/C [10] 96.9% | viability, T/C [11] 104% | viability, T/C [12] 97.1% | viability, T/C [13] 79.2% | viability, T/C [14] 79.6% | viability, T/C [15] 71.1% | viability, T/C [16] 78.5% | viability, T/C [17] 85.8% | viability, T/C [18] 76.7% | viability, T/C [19] 73.9% | viability, T/C [20] 72.4% | viability, T/C [21] 75.2% | viability, T/C [22] 81.1% | viability, T/C [23] 90.8% | viability, T/C [24] 73.4% | viability, T/C [25] 59.2% | viability, T/C [26] 64.3% | viability, T/C [27] 78.5% | viability, T/C [28] 74.4% | viability, T/C [29] 86.6% | viability, T/C [30] 76.7% | viability, T/C [31] 0.33% | viability, T/C [32] 19.3% | viability, T/C [33] 58.5% | viability, T/C [34] 70.6% | viability, T/C [35] 0.37%
< 31.6 nM: IC50 (second compound 10 µM)
active: viability, T/C [36] 1.42%
> 10000 nM: IC50 (second compound 0.0316 µM) | IC50 (second compound 0.1 µM) | IC50 (second compound 0.316 µM) | IC50 (second compound 1 µM) | IC50 (second compound 3.16 µM)

CC(=O)O[C@H]1C(=O)[C@@]2(C)[C@H]([C@H](OC(=O)c3ccccc3)[C@]3(O)C[C@H](OC(=O)[C@H](O)[C@@H](NC(=O)c4ccccc4)c4ccccc4)C(C)=C1C3(C)C)[C@]1(OC(C)=O)CO[C@@H]1C[C@@H]2O + Cc1cnc(CNC(=O)c2c(=O)c3ccc(N4CCCN(C)CC4)nc3n3c2sc2ccccc23)cn1
inactive: viability, T/C [1] 17.2% | viability, T/C [2] 12.7% | viability, T/C [3] 10.7% | viability, T/C [7] 20.6% | viability, T/C [8] 16.3% | viability, T/C [9] 9.56% | viability, T/C [10] 9.77% | viability, T/C [11] 11.2% | viability, T/C [12] 15.5% | viability, T/C [13] 27.5% | viability, T/C [14] 17.2% | viability, T/C [15] 17.9% | viability, T/C [16] 15.7% | viability, T/C [17] 15.3% | viability, T/C [18] 19.6% | viability, T/C [19] 33.9% | viability, T/C [20] 28.3% | viability, T/C [21] 23.3% | viability, T/C [22] 25.7% | viability, T/C [23] 24.8% | viability, T/C [24] 30.4% | viability, T/C [25] 42.4% | viability, T/C [26] 36.2% | viability, T/C [27] 32.1% | viability, T/C [28] 26.5% | viability, T/C [29] 34.1% | viability, T/C [30] 37.1%
< 31.6 nM: IC50 (second compound 0.0316 µM) | IC50 (second compound 0.1 µM) | IC50 (second compound 0.316 µM) | IC50 (second compound 1 µM) | IC50 (second compound 3.16 µM) | IC50 (second compound 10 µM)
active: viability, T/C [4] 7.9% | viability, T/C [5] 9.07% | viability, T/C [6] 11.3% | viability, T/C [31] 0.12% | viability, T/C [32] 1.08% | viability, T/C [33] 0.19% | viability, T/C [34] 0.17% | viability, T/C [35] 0.19% | viability, T/C [36] 0.21%

COc1cc(C2c3cc4c(cc3C(OC3OC5COC(C)OC5C(O)C3O)C3COC(=O)C23)OCO4)cc(OC)c1O (stereo unspecified) + Cc1cnc(CNC(=O)c2c(=O)c3ccc(N4CCCN(C)CC4)nc3n3c2sc2ccccc23)cn1
1060 nM: IC50 (second compound 1 µM)
507 nM: IC50 (second compound 0.1 µM)
inactive: viability, T/C [1] 100% | viability, T/C [2] 80.6% | viability, T/C [3] 70.7% | viability, T/C [4] 39.3% | viability, T/C [5] 17.8% | viability, T/C [6] 12.4% | viability, T/C [7] 85% | viability, T/C [8] 73.7% | viability, T/C [9] 59.2% | viability, T/C [10] 35% | viability, T/C [11] 28.6% | viability, T/C [12] 12% | viability, T/C [13] 75.6% | viability, T/C [14] 73.9% | viability, T/C [15] 53% | viability, T/C [16] 38% | viability, T/C [17] 29.4% | viability, T/C [18] 16.7% | viability, T/C [19] 67.8% | viability, T/C [20] 61.8% | viability, T/C [21] 55.9% | viability, T/C [22] 51.5% | viability, T/C [23] 40.5% | viability, T/C [24] 21.9% | viability, T/C [25] 66.9% | viability, T/C [26] 68.4% | viability, T/C [27] 58.3% | viability, T/C [28] 53.7% | viability, T/C [29] 47.5% | viability, T/C [30] 31.3% | viability, T/C [31] 16.2% | viability, T/C [32] 17.1% | viability, T/C [33] 58.4% | viability, T/C [34] 49.7% | viability, T/C [35] 29.3% | viability, T/C [36] 0.59%
1800 nM: IC50 (second compound 3.16 µM)
< 31.6 nM: IC50 (second compound 10 µM)
469 nM: IC50 (second compound 0.316 µM)
644 nM: IC50 (second compound 0.0316 µM)
